# Assay results from ChEMBL document CHEMBL5291721, “A preclinical secondary pharmacology resource illuminates target-adverse drug reaction associations of marketed drugs” (Nat Commun, 2023).
# How the values were obtained:
# [1] = biological target: Vasopressin V1a receptor (Homo sapiens, UniProt P37288)
# [2] = biological target: Vasopressin V2 receptor (Homo sapiens, UniProt P30518)
# [3] = biological target: T1, Muscarinic acetylcholine receptor M2 (Homo sapiens, UniProt P08172); type: functional, cell-based
# T1 sequence (P08172 whole entry): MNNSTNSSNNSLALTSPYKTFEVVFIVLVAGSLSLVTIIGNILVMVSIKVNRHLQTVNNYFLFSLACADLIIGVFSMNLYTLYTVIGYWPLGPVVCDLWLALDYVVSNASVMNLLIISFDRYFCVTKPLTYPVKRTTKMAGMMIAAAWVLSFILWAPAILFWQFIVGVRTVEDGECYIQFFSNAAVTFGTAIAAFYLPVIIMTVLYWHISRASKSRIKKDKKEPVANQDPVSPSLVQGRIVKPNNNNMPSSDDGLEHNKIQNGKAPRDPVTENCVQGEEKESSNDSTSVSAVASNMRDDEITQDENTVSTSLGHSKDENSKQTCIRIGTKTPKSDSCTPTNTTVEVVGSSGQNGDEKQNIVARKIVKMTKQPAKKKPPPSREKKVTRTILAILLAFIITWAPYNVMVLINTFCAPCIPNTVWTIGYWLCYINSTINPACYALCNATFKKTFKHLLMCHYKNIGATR
# [4] = biological target: T2, Endothelin-1 receptor (Homo sapiens, UniProt P25101)
# T2 sequence (P25101 whole entry): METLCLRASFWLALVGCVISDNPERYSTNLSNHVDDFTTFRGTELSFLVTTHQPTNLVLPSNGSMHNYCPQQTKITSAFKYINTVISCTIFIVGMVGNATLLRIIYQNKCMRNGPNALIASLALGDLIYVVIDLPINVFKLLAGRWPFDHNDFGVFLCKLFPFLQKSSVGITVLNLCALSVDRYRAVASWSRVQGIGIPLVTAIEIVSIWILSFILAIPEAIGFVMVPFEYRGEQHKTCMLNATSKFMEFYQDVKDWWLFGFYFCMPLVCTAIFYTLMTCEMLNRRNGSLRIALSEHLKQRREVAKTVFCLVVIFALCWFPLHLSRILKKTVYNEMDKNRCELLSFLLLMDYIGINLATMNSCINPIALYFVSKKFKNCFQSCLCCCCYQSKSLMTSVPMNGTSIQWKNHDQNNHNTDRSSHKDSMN
# [5] = biological target: Voltage-dependent L-type calcium channel subunit alpha-1C (Rattus norvegicus, UniProt P22002); type: functional
# Sequence of Voltage-dependent L-type calcium channel subunit alpha-1C (P22002 whole entry): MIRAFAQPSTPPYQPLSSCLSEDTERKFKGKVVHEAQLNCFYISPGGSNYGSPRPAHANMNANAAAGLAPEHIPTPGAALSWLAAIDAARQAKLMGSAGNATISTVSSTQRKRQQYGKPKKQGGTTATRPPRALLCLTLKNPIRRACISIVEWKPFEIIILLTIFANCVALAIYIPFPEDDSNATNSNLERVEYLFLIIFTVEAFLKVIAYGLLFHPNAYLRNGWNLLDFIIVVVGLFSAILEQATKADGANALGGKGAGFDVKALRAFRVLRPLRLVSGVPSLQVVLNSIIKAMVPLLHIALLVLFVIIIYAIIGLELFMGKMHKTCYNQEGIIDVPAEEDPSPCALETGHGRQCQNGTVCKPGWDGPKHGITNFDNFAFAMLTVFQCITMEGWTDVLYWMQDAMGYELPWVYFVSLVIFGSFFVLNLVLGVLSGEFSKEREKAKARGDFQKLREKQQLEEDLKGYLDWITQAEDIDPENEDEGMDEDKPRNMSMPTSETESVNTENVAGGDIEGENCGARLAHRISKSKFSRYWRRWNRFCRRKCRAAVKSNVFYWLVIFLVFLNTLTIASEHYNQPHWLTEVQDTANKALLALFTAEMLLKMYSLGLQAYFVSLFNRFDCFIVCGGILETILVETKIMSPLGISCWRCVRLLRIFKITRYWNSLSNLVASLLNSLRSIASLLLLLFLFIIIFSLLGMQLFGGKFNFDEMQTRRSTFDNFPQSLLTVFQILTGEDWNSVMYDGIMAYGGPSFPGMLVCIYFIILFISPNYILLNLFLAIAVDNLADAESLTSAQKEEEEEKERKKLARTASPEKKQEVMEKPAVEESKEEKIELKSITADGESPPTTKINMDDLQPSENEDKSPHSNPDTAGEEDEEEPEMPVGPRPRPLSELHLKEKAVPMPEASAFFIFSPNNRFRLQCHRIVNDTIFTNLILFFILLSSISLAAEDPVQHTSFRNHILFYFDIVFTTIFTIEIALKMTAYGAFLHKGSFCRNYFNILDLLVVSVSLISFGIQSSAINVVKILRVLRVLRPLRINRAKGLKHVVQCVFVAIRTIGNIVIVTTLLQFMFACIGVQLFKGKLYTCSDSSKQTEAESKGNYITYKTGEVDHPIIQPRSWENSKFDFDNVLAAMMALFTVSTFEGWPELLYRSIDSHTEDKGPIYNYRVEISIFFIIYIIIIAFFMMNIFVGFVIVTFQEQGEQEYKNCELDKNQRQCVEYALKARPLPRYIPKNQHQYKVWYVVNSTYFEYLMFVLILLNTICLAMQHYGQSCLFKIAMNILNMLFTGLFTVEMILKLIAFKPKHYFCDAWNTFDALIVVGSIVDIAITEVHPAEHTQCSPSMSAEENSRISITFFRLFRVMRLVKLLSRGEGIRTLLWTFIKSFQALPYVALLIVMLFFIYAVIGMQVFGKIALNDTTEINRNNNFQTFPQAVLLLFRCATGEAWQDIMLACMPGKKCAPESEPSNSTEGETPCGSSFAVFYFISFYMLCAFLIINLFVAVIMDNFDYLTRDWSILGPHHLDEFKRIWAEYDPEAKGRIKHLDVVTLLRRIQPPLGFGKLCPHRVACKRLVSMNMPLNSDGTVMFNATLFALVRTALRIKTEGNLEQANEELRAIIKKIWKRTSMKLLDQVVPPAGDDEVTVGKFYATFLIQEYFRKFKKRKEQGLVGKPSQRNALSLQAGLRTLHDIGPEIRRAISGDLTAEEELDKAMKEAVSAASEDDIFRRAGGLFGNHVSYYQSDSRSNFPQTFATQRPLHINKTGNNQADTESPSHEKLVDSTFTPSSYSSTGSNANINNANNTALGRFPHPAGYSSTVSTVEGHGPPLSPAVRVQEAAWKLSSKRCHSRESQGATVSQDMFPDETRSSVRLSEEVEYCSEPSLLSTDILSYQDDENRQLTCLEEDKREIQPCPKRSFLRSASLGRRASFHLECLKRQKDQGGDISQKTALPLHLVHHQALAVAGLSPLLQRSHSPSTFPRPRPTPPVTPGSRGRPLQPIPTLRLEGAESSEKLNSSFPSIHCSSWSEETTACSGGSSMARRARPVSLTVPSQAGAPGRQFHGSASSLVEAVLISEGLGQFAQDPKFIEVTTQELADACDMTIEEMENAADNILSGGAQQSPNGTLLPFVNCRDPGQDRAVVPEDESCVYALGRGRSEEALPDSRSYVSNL
# [6] = biological target: Motilin receptor (Homo sapiens, UniProt O43193)
# [7] = biological target: Sodium-dependent dopamine transporter (Homo sapiens, UniProt Q01959)
# [8] = biological target: T3, Adenosine receptor A1 (Homo sapiens, UniProt P30542)
# T3 sequence (P30542 whole entry): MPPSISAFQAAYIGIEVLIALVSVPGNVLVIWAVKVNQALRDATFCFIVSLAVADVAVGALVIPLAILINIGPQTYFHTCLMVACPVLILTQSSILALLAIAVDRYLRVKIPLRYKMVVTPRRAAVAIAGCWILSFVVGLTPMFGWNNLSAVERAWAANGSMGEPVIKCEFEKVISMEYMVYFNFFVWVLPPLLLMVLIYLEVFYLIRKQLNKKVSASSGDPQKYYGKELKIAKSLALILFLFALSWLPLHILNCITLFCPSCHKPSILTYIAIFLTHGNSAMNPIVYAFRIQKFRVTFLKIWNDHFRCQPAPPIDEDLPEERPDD
# [9] = biological target: T4, Alpha-1A adrenergic receptor (Homo sapiens, UniProt P35348); type: functional, cell-based
# T4 sequence (P35348 whole entry): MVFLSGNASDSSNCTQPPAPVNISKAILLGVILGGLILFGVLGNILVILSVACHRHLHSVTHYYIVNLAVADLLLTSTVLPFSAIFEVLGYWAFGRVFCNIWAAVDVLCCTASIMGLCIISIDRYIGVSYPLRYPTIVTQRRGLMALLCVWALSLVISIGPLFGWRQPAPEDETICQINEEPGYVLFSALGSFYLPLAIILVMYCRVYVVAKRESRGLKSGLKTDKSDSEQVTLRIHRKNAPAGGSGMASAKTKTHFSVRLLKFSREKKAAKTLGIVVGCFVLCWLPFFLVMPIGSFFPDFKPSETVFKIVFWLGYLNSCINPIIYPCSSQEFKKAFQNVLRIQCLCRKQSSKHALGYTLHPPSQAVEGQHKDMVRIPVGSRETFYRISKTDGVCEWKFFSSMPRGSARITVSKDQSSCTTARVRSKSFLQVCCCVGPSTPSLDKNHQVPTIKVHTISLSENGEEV
# [10] = biological target: 5-hydroxytryptamine receptor 2A (Homo sapiens, UniProt P28223); type: functional, cell-based
# Sequence of 5-hydroxytryptamine receptor 2A (P28223 whole entry): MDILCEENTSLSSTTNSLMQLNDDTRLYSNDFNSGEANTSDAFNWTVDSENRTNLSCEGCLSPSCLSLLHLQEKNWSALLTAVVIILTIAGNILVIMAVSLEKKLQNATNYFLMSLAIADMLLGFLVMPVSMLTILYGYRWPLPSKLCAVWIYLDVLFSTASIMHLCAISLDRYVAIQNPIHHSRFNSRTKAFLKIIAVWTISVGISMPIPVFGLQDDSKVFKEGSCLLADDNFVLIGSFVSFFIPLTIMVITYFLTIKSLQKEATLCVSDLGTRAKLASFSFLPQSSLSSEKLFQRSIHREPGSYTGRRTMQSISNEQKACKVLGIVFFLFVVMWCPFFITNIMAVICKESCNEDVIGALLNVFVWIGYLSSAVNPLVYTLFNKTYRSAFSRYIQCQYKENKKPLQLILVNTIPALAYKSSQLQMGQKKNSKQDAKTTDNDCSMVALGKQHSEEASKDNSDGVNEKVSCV
# [11] = biological target: 5-hydroxytryptamine receptor 2B (Homo sapiens, UniProt P41595); type: functional, cell-based
# [12] = biological target: cGMP-inhibited 3',5'-cyclic phosphodiesterase 3A (Homo sapiens, UniProt Q14432); type: functional
# Sequence of cGMP-inhibited 3',5'-cyclic phosphodiesterase 3A (Q14432 whole entry): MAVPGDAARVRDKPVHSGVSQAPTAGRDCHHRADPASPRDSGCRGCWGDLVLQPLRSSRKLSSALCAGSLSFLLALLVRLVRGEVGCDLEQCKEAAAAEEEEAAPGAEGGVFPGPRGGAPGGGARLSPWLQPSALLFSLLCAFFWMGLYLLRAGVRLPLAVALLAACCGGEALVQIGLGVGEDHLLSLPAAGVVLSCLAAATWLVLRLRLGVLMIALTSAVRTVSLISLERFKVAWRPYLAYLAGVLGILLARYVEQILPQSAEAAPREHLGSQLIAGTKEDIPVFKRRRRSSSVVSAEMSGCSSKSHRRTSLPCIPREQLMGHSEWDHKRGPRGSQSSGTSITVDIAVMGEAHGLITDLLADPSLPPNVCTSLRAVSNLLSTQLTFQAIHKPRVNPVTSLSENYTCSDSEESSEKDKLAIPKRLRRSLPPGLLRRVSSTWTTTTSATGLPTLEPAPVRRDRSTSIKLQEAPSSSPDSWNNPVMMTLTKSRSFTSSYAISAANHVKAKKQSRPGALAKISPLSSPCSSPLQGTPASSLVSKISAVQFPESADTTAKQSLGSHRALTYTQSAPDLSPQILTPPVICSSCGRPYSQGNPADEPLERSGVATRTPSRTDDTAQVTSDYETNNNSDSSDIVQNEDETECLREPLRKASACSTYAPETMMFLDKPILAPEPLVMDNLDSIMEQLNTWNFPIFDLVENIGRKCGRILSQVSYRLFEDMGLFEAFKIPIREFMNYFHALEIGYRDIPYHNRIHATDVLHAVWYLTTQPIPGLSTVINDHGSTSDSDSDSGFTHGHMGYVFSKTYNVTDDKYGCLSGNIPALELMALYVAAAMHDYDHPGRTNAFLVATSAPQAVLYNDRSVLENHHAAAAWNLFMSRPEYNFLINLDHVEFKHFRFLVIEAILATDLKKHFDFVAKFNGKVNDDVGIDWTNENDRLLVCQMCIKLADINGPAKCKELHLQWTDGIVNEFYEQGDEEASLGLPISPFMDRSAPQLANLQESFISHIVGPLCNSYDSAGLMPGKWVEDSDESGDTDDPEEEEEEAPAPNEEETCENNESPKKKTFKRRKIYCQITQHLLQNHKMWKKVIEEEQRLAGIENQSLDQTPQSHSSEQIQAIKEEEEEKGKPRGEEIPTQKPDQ
# [13] = biological target: Cannabinoid receptor 1 (Homo sapiens, UniProt P21554); type: functional, cell-based
# Sequence of Cannabinoid receptor 1 (P21554 whole entry): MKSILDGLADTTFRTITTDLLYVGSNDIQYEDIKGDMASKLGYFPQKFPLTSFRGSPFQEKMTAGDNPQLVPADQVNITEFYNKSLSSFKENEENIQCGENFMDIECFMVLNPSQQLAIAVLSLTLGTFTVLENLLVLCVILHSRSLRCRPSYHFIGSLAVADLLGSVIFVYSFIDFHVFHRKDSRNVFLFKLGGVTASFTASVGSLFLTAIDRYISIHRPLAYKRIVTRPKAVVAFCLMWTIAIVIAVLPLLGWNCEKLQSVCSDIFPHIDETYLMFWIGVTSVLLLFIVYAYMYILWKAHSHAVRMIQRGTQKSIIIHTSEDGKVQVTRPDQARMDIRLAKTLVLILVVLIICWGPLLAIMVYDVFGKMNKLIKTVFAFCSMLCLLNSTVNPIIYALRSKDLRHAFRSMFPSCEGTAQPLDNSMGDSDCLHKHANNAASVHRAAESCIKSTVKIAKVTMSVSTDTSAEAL
# [14] = biological target: T5, Gastrin/cholecystokinin type B receptor (Homo sapiens, UniProt P32239)
# T5 sequence (P32239 whole entry): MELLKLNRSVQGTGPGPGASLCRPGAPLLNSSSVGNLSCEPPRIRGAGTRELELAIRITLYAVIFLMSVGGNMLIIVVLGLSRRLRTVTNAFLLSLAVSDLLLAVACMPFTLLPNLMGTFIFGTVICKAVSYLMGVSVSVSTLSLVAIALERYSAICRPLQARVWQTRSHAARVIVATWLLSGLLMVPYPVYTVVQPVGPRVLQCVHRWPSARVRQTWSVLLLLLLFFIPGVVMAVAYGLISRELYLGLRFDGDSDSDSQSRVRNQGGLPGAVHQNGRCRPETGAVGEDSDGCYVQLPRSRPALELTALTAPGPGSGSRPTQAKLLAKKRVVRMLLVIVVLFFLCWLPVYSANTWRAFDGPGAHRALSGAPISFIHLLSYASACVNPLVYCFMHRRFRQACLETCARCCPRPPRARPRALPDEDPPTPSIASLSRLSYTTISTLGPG
# [15] = biological target: Sodium-dependent serotonin transporter (Homo sapiens, UniProt P31645)
# [16] = biological target: Histamine H2 receptor (Homo sapiens, UniProt P25021); type: functional, cell-based
# [17] = biological target: Beta-2 adrenergic receptor (Homo sapiens, UniProt P07550)
# Sequence of Beta-2 adrenergic receptor (P07550 whole entry): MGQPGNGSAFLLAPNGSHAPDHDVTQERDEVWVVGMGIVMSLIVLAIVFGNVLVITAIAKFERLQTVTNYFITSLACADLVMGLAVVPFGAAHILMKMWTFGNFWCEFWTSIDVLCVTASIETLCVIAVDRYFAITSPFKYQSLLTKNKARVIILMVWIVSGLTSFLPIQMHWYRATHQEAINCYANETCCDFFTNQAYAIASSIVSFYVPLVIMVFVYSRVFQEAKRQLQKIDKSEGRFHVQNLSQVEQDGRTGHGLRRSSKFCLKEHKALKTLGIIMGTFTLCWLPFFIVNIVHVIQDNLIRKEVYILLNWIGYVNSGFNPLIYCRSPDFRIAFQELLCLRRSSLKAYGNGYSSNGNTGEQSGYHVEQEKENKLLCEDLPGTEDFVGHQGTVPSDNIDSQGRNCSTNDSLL
# Also: assay procedure not described here.
# Sequence of Vasopressin V2 receptor (P30518 whole entry): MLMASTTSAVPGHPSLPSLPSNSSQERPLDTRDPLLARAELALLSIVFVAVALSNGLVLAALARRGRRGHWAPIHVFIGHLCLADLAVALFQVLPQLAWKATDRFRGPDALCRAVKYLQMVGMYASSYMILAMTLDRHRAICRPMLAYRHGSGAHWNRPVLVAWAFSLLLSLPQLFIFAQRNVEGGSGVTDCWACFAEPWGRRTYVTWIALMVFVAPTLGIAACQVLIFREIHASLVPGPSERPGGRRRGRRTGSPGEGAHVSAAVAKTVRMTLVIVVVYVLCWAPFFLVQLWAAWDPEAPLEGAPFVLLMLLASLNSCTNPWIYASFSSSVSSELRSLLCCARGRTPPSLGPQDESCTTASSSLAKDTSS
AC50 [1] [µM],AC50 [2] [µM],AC50 [3] [µM],AC50 [4] [µM],AC50 [5] [µM],AC50 [6] [µM],AC50 [7] [µM],AC50 [8] [µM],AC50 [9] [µM],AC50 [10] [µM],AC50 [11] [µM],AC50 [12] [µM],AC50 [13] [µM],AC50 [14] [µM],AC50 [15] [µM],AC50 [16] [µM],AC50 [17] [µM],Structure (SMILES)
> 30,> 30,> 30,> 30,> 30,7.8,> 30,> 30,8.3,> 30,> 30,> 30,> 30,> 30,> 30,–,–,C=C[C@@]1(C)CC(=O)[C@]2(O)[C@@]3(C)[C@@H](O)CCC(C)(C)[C@@H]3[C@H](OC(=O)CCN(C)C)[C@H](OC(C)=O)[C@@]2(C)O1
> 10,> 10,> 10,–,> 10,> 10,> 10,> 10,> 30,> 10,> 10,> 30,> 30,–,> 10,> 10,> 10,CC(=O)OCC(=O)[C@@]1(O)CC[C@H]2[C@@H]3CCC4=CC(=O)CC[C@]4(C)C3=CC[C@@]21C [ANECORTAVE ACETATE]
> 10,> 10,> 10,–,> 10,> 10,3.2,> 10,–,> 10,> 10,> 30,–,–,> 30,> 10,> 10,NS(=O)(=O)c1cc2c(cc1C(F)(F)F)NC(Cc1ccccc1)NS2(=O)=O (stereo not given) [BENDROFLUMETHIAZIDE]
> 30,> 30,> 30,–,> 30,> 30,> 30,> 30,–,> 30,> 30,25,–,22.1,> 30,> 30,> 30,COC(=O)N[C@@H](C)CNc1nccc(-c2cn(C(C)C)nc2-c2cc(Cl)cc(NS(C)(=O)=O)c2F)n1 [ENCORAFENIB]
> 30,> 30,> 30,–,> 30,> 30,> 30,> 30,> 30,> 30,> 30,> 30,–,> 30,> 30,> 30,> 30,Nc1nc(F)nc2c1ncn2[C@@H]1O[C@H](COP(=O)(O)O)[C@@H](O)[C@@H]1O [FLUDARABINE PHOSPHATE]
> 10,> 10,> 10,–,> 10,> 10,> 10,> 10,> 30,> 10,> 10,> 30,> 30,–,> 10,> 10,> 10,CC(=O)Nc1c(I)c(C(=O)N[C@H]2C(O)O[C@H](CO)[C@@H](O)[C@@H]2O)c(I)c(N(C)C(C)=O)c1I (stereo not given in full) [METRIZAMIDE]
> 30,> 30,> 30,> 30,–,> 30,> 30,> 30,> 30,> 30,> 30,> 30,> 30,> 30,> 30,> 30,> 30,Cc1ccc(=O)n(-c2ccccc2)c1 [PIRFENIDONE]
> 30,> 30,> 30,> 30,–,> 30,> 30,> 30,> 30,> 30,> 30,> 30,> 30,> 30,> 30,> 30,> 30,Cc1ccc2c(-c3ccccc3)nc(=O)n(C(C)C)c2c1 [PROQUAZONE]
> 30,> 30,> 30,> 30,> 30,> 30,> 30,> 30,> 30,> 30,> 30,> 30,> 30,> 30,> 30,> 30,–,COc1c(O[C@@H]2O[C@H](CO)[C@@H](O)[C@H](O)[C@H]2O)cc2c(c1OC)-c1ccc(SC)c(=O)cc1[C@@H](NC(C)=O)CC2 [THIOCOLCHICOSIDE]
> 30,> 30,> 30,–,–,> 10,> 30,> 30,> 30,> 30,> 30,> 30,–,> 30,> 30,> 30,> 10,N#C[C@@H]1CCCN1C(=O)CNC12CC3CC(CC(O)(C3)C1)C2 [VILDAGLIPTIN]

Structure (SMILES),AC50 [1] [µM],AC50 [2] [µM],AC50 [3] [µM],AC50 [4] [µM],AC50 [5] [µM],AC50 [6] [µM],AC50 [7] [µM],AC50 [8] [µM],AC50 [9] [µM],AC50 [10] [µM],AC50 [11] [µM],AC50 [12] [µM],AC50 [13] [µM],AC50 [14] [µM],AC50 [15] [µM],AC50 [16] [µM],AC50 [17] [µM]
CC(=O)O[C@H]1C[C@@H]2CC[C@@H]3[C@H](CC[C@@]4(C)[C@H]3C[C@H]([N+]3(C)CCCCC3)[C@@H]4OC(C)=O)[C@@]2(C)C[C@@H]1[N+]1(C)CCCCC1 [PANCURONIUM],> 10,> 10,> 10,–,> 10,> 10,> 10,> 10,–,> 10,> 10,> 30,–,–,> 10,> 10,> 10
CC1(C)C(C=C(Cl)Cl)C1C(=O)OCc1cccc(Oc2ccccc2)c1 (stereo not given) [PERMETHRIN],> 10,> 10,> 10,–,> 10,> 10,> 10,> 10,–,> 10,> 10,> 30,–,–,> 10,> 10,> 10
